Reference: patent publication US9970938B2, “Use of BUBR1 as a biomarker of drug response to furazanobenzimidazoles” (Basilea Pharmaceutica AG, priority 2011, dated 2018)

Tests used:
Type in all cases: cell-based, human
A549 NSCLC cells = assay: Immunofluorescent staining of microtubules in cultured cells; details: for microtubule phenotype of mitotic or G2/M arrested cells: 24 hours treatment, anti-alpha-tubulin staining; for microtubule phenotype, agent added for the last 4 hours of 24 hours BAL27862 treatment: combination
Description: A549 human non-small cell lung cancer (NSCLC, ATCC reference number CCL-185) cells, HeLa cervical cancer cells (ATCC reference number CCL-2) and SKBR3 breast carcinoma cells (ATCC reference number HTB-30) were seeded at densities of 50% on round microscope coverslips and cultured for 24 hours in RPMI-1640 containing 10% FCS (also referred to as FBS) at 37° C., 5% CO2. Compounds to be tested were dissolved in DMSO. The cell culture medium was replaced with medium containing the diluted compound(s) (paclitaxel, vinblastine, colchicine and nocodazole were purchased from Sigma-Aldrich) or vehicle. After treatment, coverslips were washed and cells were fixed in methanol/acetone (1:1) for 5 minutes at room temperature and subsequently incubated in blocking buffer (0.5% BSA and 0.1% TX-100 in PBS) for 30 minutes at room temperature. Specimens were then incubated with anti-alpha-tubulin antibody (Sigma, 1:2000) for 1 hour at room temperature in blocking buffer. After several washing steps cells were incubated with AlexaFluor-488 goat-anti-mouse IgG (Molecular Probes, 1:3000) for 1 hour at room temperature followed by several washing steps with blocking buffer. Specimens were then mounted with ProLong Gold antifade (Molecular Probes), sealed with nail polish and examined with a Leica immunofluorescence microscope. Images were captured with a cooled CCD-camera and processed by ImageJ software.

H460 = assay: Crystal Violet assay of BAL27862-resistant cell line versus parental line; details: 72 hours incubation, Crystal Violet
Excerpt: (§1) BAL27862-resistant sublines of human non-small cell lung cancer (H460 ATCC reference HTB-177; A549 ATCC reference CCL-185), ovarian cancer (SKOV3 ATCC reference HTB-77) lines were generated by long-term selection in complete cell culture medium (RPMI-1640 containing 10% FCS; Sigma-Aldrich) by stepwise increasing concentrations of BAL27862. […] The resistant sublines were expanded at the highest tolerated BAL27862 concentration and subsequently frozen and stored in liquid nitrogen.
(§2) After medium was removed, cells were fixed and stained by adding 50 μl Crystal Violet Staining (0.2% Crystal Violet in 50% Methanol) per well. Plates were incubated for 1 hour at room temperature. Subsequently the stain was decanted and plates were washed 4 times with double-distilled water. Plates were air-dried for several hours. Stain was dissolved by adding 100 μl buffer (0.1 M Tris pH 7.5, 0.2% SDS, 20% Ethanol) per well and shaking the plates. Absorbance at 590 nm was measured using a SpectraMax M2e plate reader (Molecular Devices). Anti-proliferative IC50 values were calculated from concentration response curves using GraphPad Prism software. Resistance factors were calculated as a ratio of BAL27862 IC50 in the resistant line variant versus the IC50 in the parental line.

SKOV3 resistant 1 = assay: as above; details: 72 hours incubation, Crystal Violet
Excerpt: as §1, §2

SKOV3 resistant 2 = assay: as above; details: 72 hours incubation, Crystal Violet
Excerpt: as §1, §2

A549 = assay: as above; details: 72 hours incubation, Crystal Violet
Excerpt: as §1, §2

[1] = tested on: tumour cells derived from patient-derived tumours from gastric and lung cancer; assay: Colony outgrowth assay, all tumour models
Description: (§3) Single cell suspensions of patient-derived tumour xenografts (maintained in nude mice) were prepared. For colony outgrowth assays, cells were plated in soft agar in 24-well plates according to the assay introduced by Hamburger & Salmon (Primary bioassay of human tumour stem cells, Science, 1977, 197:461-463). 2.0E+04-6.0E+04 cells in 0.2 mL medium containing 0.4% agar were plated out on a bottom layer of 0.75% agar. Test compounds were applied in 0.2 mL culture medium. Every 24-well plate contained untreated controls and samples in triplicates. Cultures were incubated at 37° C. and 7.5% CO2 for 5-28 days. 24 hours prior to analysis, vital colonies were stained with a solution of metabolizable tetrazolium salt (Alley M C et al, Life Sci. 1982, 31:3071-3078) and were counted with an automatic image analysis system (Omnicon 3600, Biosys GmbH). Relative drug effects were expressed by the ratio of the mean number of colonies in the treated wells and the control wells. IC70-values were determined by plotting compound concentrations versus relative colony counts.

BAL27862-resistant cells = assay: Crystal Violet assay of BAL27862-resistant cell lines, all lines
Excerpt: as §1, §2

GXF251 = assay: Colony outgrowth assay, patient-derived tumour xenograft cells; design: key: S: BAL27862-sensitive tumour cells have IC70 values in the low nanomolar range; R: BAL27862-resistant tumour cells are defined by IC70 values >600 nanomolar; details: Gastric
Description: as §3, with “GmbH).” for “GmbH). Relative drug effects were expressed by the ratio of the mean number of colonies in the treated wells and the control wells. IC70-values were determined by plotting compound concentrations versus relative colony counts.”
(§4) Relative drug effects were expressed by the ratio of the mean number of colonies in the treated wells and the control wells. IC70-values were determined by plotting compound concentrations versus relative colony counts.

LXFL529 = assay: as above; design: key: S: BAL27862-sensitive tumour cells have IC70 values in the low nanomolar range; R: BAL27862-resistant tumour cells are defined by IC70 values >600 nanomolar; details: Lung
Description: as §3, with “GmbH).” for “GmbH). Relative drug effects were expressed by the ratio of the mean number of colonies in the treated wells and the control wells. IC70-values were determined by plotting compound concentrations versus relative colony counts.”
as §4

GXF97 = assay: as above; design: key: S: BAL27862-sensitive tumour cells have IC70 values in the low nanomolar range; R: BAL27862-resistant tumour cells are defined by IC70 values >600 nanomolar; details: Gastric
Description: as §3, with “GmbH).” for “GmbH). Relative drug effects were expressed by the ratio of the mean number of colonies in the treated wells and the control wells. IC70-values were determined by plotting compound concentrations versus relative colony counts.”
as §4

LXFA629 = assay: as above; design: key: S: BAL27862-sensitive tumour cells have IC70 values in the low nanomolar range; R: BAL27862-resistant tumour cells are defined by IC70 values >600 nanomolar; details: Lung
Description: as §3, with “GmbH).” for “GmbH). Relative drug effects were expressed by the ratio of the mean number of colonies in the treated wells and the control wells. IC70-values were determined by plotting compound concentrations versus relative colony counts.”
as §4

Compound | microtubule phenotype of mitotic or G2/M arrested cells (A549 NSCLC cells) | microtubule phenotype, agent added for the last 4 hours of 24 hours BAL27862 treatment (A549 NSCLC cells) | resistance or sensitivity to treatment, same ex vivo assay [1] | Sensitive (S)/Resistant (R), by IC70 in colony outgrowth (GXF251) | Sensitive (S)/Resistant (R), by IC70 in colony outgrowth (LXFL529) | Sensitive (S)/Resistant (R), by IC70 in colony outgrowth (GXF97) | Sensitive (S)/Resistant (R), by IC70 in colony outgrowth (LXFA629) | further results
COc1cc2c(c(OC)c1OC)-c1ccc(OC)c(=O)cc1[C@@H](NC(C)=O)CC2 [Colchicine, colchicine] | mitotic microtubule phenotypes characteristic of these agents | no impact on the observed microtubule phenotype |  |  |  |  |  | Resistance factors (ratio of IC50 BAL27862-resistant cell line variant and IC50 parental cell line) (H460): 1.6; Resistance factors (ratio of IC50 BAL27862-resistant cell line variant and IC50 parental cell line) (SKOV3 resistant 1): 2.0; Resistance factors (ratio of IC50 BAL27862-resistant cell line variant and IC50 parental cell line) (SKOV3 resistant 2): 2.8; Resistance factors (ratio of IC50 BAL27862-resistant cell line variant and IC50 parental cell line) (A549): 0.9
Nc1ccc(C(=O)Cn2c(-c3nonc3N)nc3ccccc32)cc1 [Compound B, 2-[2-(4-Amino-furazan-3-yl)-benzoimidazol-1-yl]-1-(4-amino-phenyl)-ethanone] | highly reproducible and distinct microtubule phenotype |  |  |  |  |  |  | 
N#CCCNc1nonc1-c1nc2ccccc2n1CC(=O)c1ccc(N)nc1 [Compound C, 3-(4-{1-[2-(6-Amino-pyridin-3-yl)-2-oxo-ethyl]-1H-benzoimidazol-2-yl}-furazan-3-ylamino)-propionitrile] | highly reproducible and distinct microtubule phenotype |  |  |  |  |  |  | 
COC(=O)Nc1nc2ccc(C(=O)c3cccs3)cc2[nH]1 [Nocodazole, nocodazole] | mitotic microtubule phenotypes characteristic of these agents | no impact on the observed microtubule phenotype |  |  |  |  |  | 
CC(=O)O[C@H]1C(=O)[C@@]2(C)[C@H]([C@H](OC(=O)c3ccccc3)[C@]3(O)C[C@H](OC(=O)[C@H](O)[C@@H](NC(=O)c4ccccc4)c4ccccc4)C(C)=C1C3(C)C)[C@]1(OC(C)=O)CO[C@@H]1C[C@@H]2O [Paclitaxel, paclitaxel] | mitotic microtubule phenotypes characteristic of these agents | no impact on the observed microtubule phenotype | resistant | R (BAL27862-resistant tumour cells are defined by IC70 values >600 nanomolar) | R (BAL27862-resistant tumour cells are defined by IC70 values >600 nanomolar) | R (BAL27862-resistant tumour cells are defined by IC70 values >600 nanomolar) | R (BAL27862-resistant tumour cells are defined by IC70 values >600 nanomolar) | response of BAL27862-resistant cells versus parental (BAL27862-resistant cells): increased sensitivity
CC[C@]1(O)C[C@@H]2CN(CCc3c([nH]c4ccccc34)[C@@](C(=O)OC)(c3cc4c(cc3OC)N(C)[C@H]3[C@@](O)(C(=O)OC)[C@H](OC(C)=O)[C@]5(CC)C=CCN6CC[C@]43[C@@H]65)C2)C1 [Vinblastine, vinblastine] | mitotic microtubule phenotypes characteristic of these agents | no impact on the observed microtubule phenotype | sensitive | S | S | S | S | 
